In patent publication US6913895B1, “Methods for assaying transglycosylase reactions, and for identifying inhibitors thereof” (Advanced Medicine East, Inc., priority 1999, dated 2005):
Values after ≈ are worked out from the molar mass of the structure shown. “Also recorded” adds a separate entry of the source. Read-outs that look alike come from different tables or passages of the source. Marks after values point to notes of the source that are not given here.

Key:
S. aureus 29213 = type: cell-based
E. faecium 49624 = type: cell-based
transglycosylase [1] = assay: Transglycosylase assay: peptidoglycan formation from lipid II accumulated in situ in bacterial membranes; type: biochemical, E. coli; details: for inhibition of peptidoglycan formation: inhibitor added after formation of lipid II, Triton X-100 removed, 2 hours incubation, paper chromatography
Description: Reactions were performed in the following buffer: 50 mM Tris (pH=8.0), 42 mM MgAc, 208 mM KCl, and 0.1% Triton X-100®. Each reaction was performed in a 50 ul reaction volume, containing 25 μg French Pressed bacterial membranes, 0.5 nmoles biotinylated UDP-MurNAc-pentapeptide 10% DMSO final concentration (added in conjunction with inhibitor), and 0.5 uM 14C-GlcNAc (≈20,000 CPM). All components except 14C-GlcNAc were pre-incubated together for 10 min at room temperature. The reactions were incubated an additional 1 hour after addition of ^14C-GlcNAc.
To make the reaction volume more manageable, the Triton was removed with the addition of Detergent-Out resin (Geno-Technology, St. Louis, Mo.). After binding up the inhibiting detergent, the reaction was further incubated for 2 hours to allow for transglycosylation to proceed.
The above-described methods of the invention were used to analyze the activity of three inhibitors. The assay included separate samples of tunicamycin, moenomycin, or bacitracin in various concentrations. These inhibitors were added to their respective samples after formation of lipid II, with the subsequent removal of the transglycosylation blocker Triton X-100®. After 2 hours incubation, aliquots of the solubilized products were analyzed by ascending paper chromatography. The amount of lipid II converted into peptidoglycan is represented by the amount of radioactivity measured in CPM remaining at the origin for each reaction.
Compounds TS0517 (chlorobiphenyl-vancomycin), TS0518 (chlorobiphenyl-desleucyl-vancomycin), TS0523, TS1017, and TS30663 were all assayed using the above-described assay, in which the inhibitors were added to their respective samples after formation of lipid II, with the subsequent removal of Triton X-100®. After 2 hours incubation, aliquots of the solubilized products were analyzed by ascending paper chromatography.

transglycosylase [2] = assay: as above; type: biochemical, E. coli; details: UDP-MurNAc-tetrapeptide substrate, inhibitors added after Triton X-100 removal, 2 hour incubation
lipid II formation = assay: Lipid II formation assay in bacterial membranes; type: biochemical, E. coli; details: for inhibition of lipid II formation: inhibitors added with labeled UDP-GlcNAc and UDP-MurNAc-tetrapeptide (data not shown)
[3] = tested on: E. faecalis CL4877 (VanB); type: cell-based
E. faecium CL4931 (VanA) = type: cell-based
E. faecalis 29212 = type: cell-based
peptidoglycan synthesis = details: at 100 μg/ml, A. viridens membranes; cited from earlier work
[4] = S. aureus 29213, vancomycin-sensitive
[5] = E. faecium 49624, vancomycin-sensitive
[6] = E. faecalis CL4877 (VanB), vancomycin resistant
[7] = E. faecium CL4931 (VanA), vancomycin resistant
[8] = E. faecalis 29212, vancomycin-sensitive

| Compound | MIC (S. aureus 29213; [4]) [µg/mL] | MIC (E. faecium 49624; [5]) | inhibition of peptidoglycan formation (transglycosylase [1]) | inhibition of peptidoglycan synthesis (transglycosylase [2]) | inhibition of lipid II formation (lipid II formation) | MIC [3, 6] [µg/mL] | MIC (E. faecium CL4931 (VanA); [7]) [µg/mL] | MIC (E. faecalis 29212; [8]) [µg/mL] | MIC (S. aureus 29213; Staphylococcus aureus, 29213) [µg/mL] | MIC (E. faecium 49624; Enterococcus faecium, 49624) [µg/mL] | inhibition of lipid II formation in vitro (lipid II formation; substrate with D-ala-D-ala dipeptide moiety) | MIC ([3]; Enterococcus faecalis) [µg/mL] | MIC (E. faecium CL4931 (VanA); Enterococcus faecium) [µg/mL] | MIC (E. faecalis 29212; Enterococcus faecalis, 29212) [µg/mL] | inhibition of peptidoglycan synthesis (peptidoglycan synthesis) [%] | potency in E. coli system relative to that measured in Allen et al. using A. viridens (transglycosylase [1]; UDP-MurNAc-pentapeptide or UDP-MurNAc-tetrapeptide) | inhibition of peptidoglycan synthesis, UDP-MurNAc-pentapeptide vs UDP-MurNAc-tetrapeptide (transglycosylase [1]; comparison of the two precursor substrates) | IC50 / effect compared with assay without transglycosylation blocker (transglycosylase [1]; with vs without Triton X-100 blocker) | inhibition of peptidoglycan formation (transglycosylase [1]; listed as tunicamycin) |
| --- | --- | --- | --- | --- | --- | --- | --- | --- | --- | --- | --- | --- | --- | --- | --- | --- | --- | --- | --- |
| C[C@@H]1O[C@@H](O[C@H]2[C@H](Oc3c4cc5cc3Oc3ccc(cc3Cl)[C@@H](O)[C@@H](N)C(=O)N[C@@H](CC(N)=O)C(=O)N[C@H]5C(=O)NC3C(=O)NC(C(=O)N[C@H](C(=O)O)c5cc(O)cc(O)c5-c5cc3ccc5O)[C@H](O)c3ccc(c(Cl)c3)O4)O[C@H](CO)[C@@H](O)[C@@H]2O)C[C@](C)(NCc2ccc(-c3ccc(Cl)cc3)cc2)[C@@H]1O (mixture of isomers) [CBP-dl-vancomycin, chlorobiphenyl-desleucyl-vancomycin] | 3.12 (≈ 2.05 µM) | 1.56 µg/mL (≈ 1.02 µM) | showed inhibition of peptidoglycan formation | far more effective | no inhibition of lipid II formation | 25 (≈ 16.4 µM) | 12.5 (≈ 8.21 µM) | 3.12 (≈ 2.05 µM) |  |  |  |  |  |  |  |  |  |  |  |
| CN[C@H](CC(C)C)C(=O)N[C@H]1C(=O)N[C@@H](CC(N)=O)C(=O)N[C@H]2C(=O)N[C@H]3C(=O)N[C@H](C(=O)N[C@H](C(=O)O)c4cc(O)cc(O)c4-c4cc3ccc4O)[C@H](O)c3ccc(c(Cl)c3)Oc3cc2cc(c3O[C@@H]2O[C@H](CO)[C@@H](O)[C@H](O)[C@H]2O[C@H]2C[C@](C)(NCc3ccc(-c4ccc(Cl)cc4)cc3)[C@H](O)[C@H](C)O2)Oc2ccc(cc2Cl)[C@H]1O [CBP-vancomycin, chlorobiphenyl-vancomycin] | 0.25 (≈ 0.152 µM) | 0.062 µg/mL (≈ 0.0376 µM) | showed inhibition of peptidoglycan formation | far more effective | no inhibition of lipid II formation | 12.5 (≈ 7.58 µM) | 12.5 (≈ 7.58 µM) | 0.25 (≈ 0.152 µM) |  |  |  |  |  |  |  |  |  |  |  |
| CN[C@H](CC(C)C)C(=O)N[C@H]1C(=O)N[C@@H](CC(N)=O)C(=O)N[C@H]2C(=O)N[C@H]3C(=O)N[C@H](C(=O)N[C@H](C(=O)O)c4cc(O)cc(O)c4-c4cc3ccc4O)[C@H](O)c3ccc(c(Cl)c3)Oc3cc2cc(c3O[C@@H]2O[C@H](CO)[C@@H](O)[C@H](O)[C@H]2O[C@H]2C[C@](C)(N)[C@H](O)[C@H](C)O2)Oc2ccc(cc2Cl)[C@H]1O [Vancomycin, vancomycin] |  |  |  | only minimal inhibition |  |  |  |  | 1.25 (≈ 0.863 µM) | 1.25 (≈ 0.863 µM) | capable of inhibiting the formation of lipid II in vitro | 1250 (≈ 863 µM) | 1250 (≈ 863 µM) | 3.12 (≈ 2.15 µM) |  |  |  |  |  |
| moenomycin | 0.05 | >200^c μg/ml | sensitive |  |  | 0.13 | 0.25 | 0.078 |  |  |  |  |  |  | < 35 | 4 orders of magnitude | equipotent inhibition | identical IC50 values; also recorded: substantially the same |  |
| tunicamycin |  |  | no measurable effect |  |  |  |  |  |  |  |  |  |  |  |  |  |  |  | had no effect |
